Data on 19 molecules can be found in patent US10208030B2, “GPR119 agonist compounds” (Mankind Pharma Ltd., priority 2016, dated 2019).

In one experiment the target is T1, hGPR119 (Homo sapiens, UniProt Q8TDV5).
T1 construct: expressed in transfected cells; host or cells: CHO cells (CHO-hGPR119)
T1 sequence (Q8TDV5 1-335): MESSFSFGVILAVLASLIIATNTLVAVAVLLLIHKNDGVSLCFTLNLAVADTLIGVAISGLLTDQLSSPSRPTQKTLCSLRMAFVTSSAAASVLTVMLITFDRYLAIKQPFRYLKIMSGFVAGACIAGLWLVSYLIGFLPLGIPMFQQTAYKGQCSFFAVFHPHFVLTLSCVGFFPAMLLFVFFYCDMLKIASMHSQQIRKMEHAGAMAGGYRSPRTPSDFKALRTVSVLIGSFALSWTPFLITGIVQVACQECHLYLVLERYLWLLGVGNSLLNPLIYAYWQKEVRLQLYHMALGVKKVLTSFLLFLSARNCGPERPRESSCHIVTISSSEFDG
The experiment in a line: In vitro cyclic AMP assay (Cisbio HTRF) in CHO-hGPR119 cells. Conditions: cAMP; for activation at 1 µM: 1 h, 60 min, read-out: Induction (% induction at 1 μM); for EC50: class symbols, legend not given. Format: cell-based. In a few lines: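 Cells plated at 5000/well and exposed to test compound dose series for 60 min at room temperature with 1 mM IBMX and 0.5% DMSO (final). Lysis with anti-cAMP antibody/d2-cAMP detection reagents, 1 h at room temperature; HTRF read at 665/620 nm (337 nm excitation); EC50 from concentration-response.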
On the technique in general: TR-FRET usually uses a lanthanide donor and a delayed reading to cut background.

Another experiment concerns Male C57BL/6 mice. Briefly: Oral glucose tolerance test in C57BL/6 mice. Format: in vivo. The conditions noted are these: 3 mpk and 10 mpk oral. As to the method: (§1) Male C57BL/6 mice (8-10 weeks) were grouped based on basal glucose levels and animals were fasted for 16 hours. Glucose level of each animal was estimated in blood collected from tail vein before animals were dosed orally with 0.5% Tween 80 and 0.5% NaCMC (vehicle control) and compounds at 3 and 10 mpk (n=5). After 30 minutes of compound dosing, blood glucose was again estimated and 2 g/kg/10 ml (20%) of Glucose solution was administered orally to all the animals. Blood glucose was estimated at 15, 30, 60, 90 and 120 minutes time points after glucose administration. Accu-Check active blood glucose meter was utilised for estimation of blood from tail vein.
Glucose reduction observed in animals treated with compounds of present invention is represented in terms of % AUC reduction. A greater glucose reduction in oral glucose tolerance test indicates the compound's efficacy in this rodent species.

Another experiment deals with Male SD rats. Briefly: Oral glucose tolerance test in Sprague-Dawley rats. Conditions: 3 mpk and 10 mpk oral. Format: in vivo. As for the experimental part: as §1, with “SD rats” for “C57BL/6 mice”
Glucose reduction observed in animals treated with GPR119 agonists is represented in terms of % AUC reduction. A greater glucose reduction in oral glucose tolerance test indicates the compound's efficacy in this rodent species.

Turning to `CCCc1cnc(N2CCC(C(C)Oc3nn4cc(-c5ccc(S(C)(=O)=O)nc5)nc4s3)CC2)nc1` (stereo in doubt) [Compound 1081, 2-((S)-1-(1-(5-propylpyrimidin-2-yl)piperidin-4-yl)ethoxy)-6-(6-(methylsulfonyl)pyridin-3-yl)imidazo[2,1-b][1,3,4]thiadiazole], at hGPR119, the activation at 1 µM was 66% and the EC50 result is “A++”. The “glucose reduction (% AUC reduction) in oral glucose tolerance test” value (“glucose reduction (% AUC reduction)” below) in the experiment on Male C57BL/6 mice is on record as “significant dose dependent glucose reduction”.
`CC(Oc1nn2cc(-c3ccc(S(C)(=O)=O)cc3F)nc2s1)C1CCN(c2ncc(Cl)cn2)CC1` (stereo in doubt) [Compound 1090, 2-((S)-1-(1-(5-chloropyrimidin-2-yl)piperidin-4-yl)ethoxy)-6-(2-fluoro-4-(methylsulfonyl)phenyl)imidazo[2,1-b][1,3,4]thiadiazole]: the activation at 1 µM at hGPR119 was 76%. Besides, the EC50 result at hGPR119 was “A++”. The “glucose reduction (% AUC reduction)” value in the experiment with Male C57BL/6 mice and in the experiment on Male SD rats was “significant dose dependent glucose reduction” each time.
`CC(C)c1noc(N2CCC([C@@H](C)Oc3nn4cc(-c5ccncc5)nc4s3)CC2)n1` [Compound 1059, (R)-3-isopropyl-5-(4-(1-((6-(pyridin-4-yl)imidazo[2,1-b][1,3,4]thiadiazol-2-yl)oxy)ethyl)piperidin-1-yl)-1,2,4-oxadiazole]: at hGPR119, the activation at 1 µM amounted to 68% and the EC50 entry was “A++”. The “glucose reduction (% AUC reduction)” value in the experiment on Male C57BL/6 mice is reported as “significant dose dependent glucose reduction”. Besides, the “glucose reduction (% AUC reduction)” value with Male SD rats is listed as “significant dose dependent glucose reduction”.
With `CCCc1cnc(N2CCC([C@H](C)Oc3nn4cc(-c5ccc(S(C)(=O)=O)cc5)nc4s3)CC2)nc1` [Compound 1067, (S)-6-(4-(methylsulfonyl)phenyl)-2-(1-(1-(5-propylpyrimidin-2-yl)piperidin-4-yl)ethoxy)imidazo[2,1-b][1,3,4]thiadiazole], on hGPR119, the activation at 1 µM was 55% and the EC50 entry is “A++”. Also, the “glucose reduction (% AUC reduction)” value with Male C57BL/6 mice was “significant dose dependent glucose reduction”. The “glucose reduction (% AUC reduction)” value in the experiment with Male SD rats is listed as “significant dose dependent glucose reduction”.
Turning to `CC(C)c1noc(N2CCC([C@H](C)Oc3nn4cc(-c5cnc(Cl)nc5)nc4s3)CC2)n1` [Compound 1071, (S)-5-(4-(1-((6-(2-chloropyrimidin-5-yl)imidazo[2,1-b][1,3,4]thiadiazol-2-yl)oxy)ethyl)piperidin-1-yl)-3-isopropyl-1,2,4-oxadiazole], the activation at 1 µM at hGPR119 came out at 75%. Also, at hGPR119, the EC50 result was “A++”. In addition, the “glucose reduction (% AUC reduction)” value with Male C57BL/6 mice and with Male SD rats was “significant dose dependent glucose reduction” in each case.
As to `CC(C)c1noc(N2CCC([C@@H](C)Oc3nn4cc(-c5ccc(S(C)(=O)=O)cc5F)nc4s3)CC2)n1` [Compound 1088, 2-((R)-1-(1-(3-isopropyl-1,2,4-oxadiazol-5-yl)piperidin-4-yl)ethoxy)-6-(2-fluoro-4-(methylsulfonyl)phenyl)imidazo[2,1-b][1,3,4]thiadiazole], at hGPR119, the activation at 1 µM turned out to be 73% and the EC50 entry is “A++”. The “glucose reduction (% AUC reduction)” value with Male C57BL/6 mice is reported as “significant dose dependent glucose reduction”.
Take `CC(C)c1noc(N2CCC(C(C)Oc3nn4cc(-c5ccc(S(C)(=O)=O)cc5C(F)(F)F)nc4s3)CC2)n1` (stereo not shown) [Compound 1091, 2-(1-(1-(3-isopropyl-1,2,4-oxadiazol-5-yl)piperidin-4-yl)ethoxy)-6-(2-(trifluoromethyl)-4-(methylsulfonyl)phenyl)imidazo[2,1-b][1,3,4]thiadiazole]: the activation at 1 µM at hGPR119 is 33%. In the experiment with Male SD rats, the “glucose reduction (% AUC reduction)” value was “significant dose dependent glucose reduction”.
Consider `Cc1cc(S(C)(=O)=O)ccc1-c1cn2nc(O[C@@H](C)C3CCN(c4nc(C(C)C)no4)CC3)sc2n1` [Compound 1112, 2-((S)-1-(1-(3-isopropyl-1,2,4-oxadiazol-5-yl)piperidin-4-yl)ethoxy)-6-(2-methyl-4-(methylsulfonyl)phenyl)imidazo[2,1-b][1,3,4]thiadiazole], for which, at hGPR119, the activation at 1 µM was 71%.
On to `CCOC(=O)N1CCC([C@H](C)Oc2nn3cc(-c4ccc(S(C)(=O)=O)cc4F)nc3s2)CC1` [Compound 1113, ethyl 4-((S)-1-(6-(2-fluoro-4-(methylsulfonyl)phenyl)imidazo[2,1-b][1,3,4]thiadiazol-2-yloxy)ethyl)piperidine-1-carboxylate], for which, on hGPR119, the activation at 1 µM was 68% and the EC50 result is listed as “A+”.
With `CC(C)c1noc(C2CCN(c3nc(-c4ccc(S(C)(=O)=O)cc4)ns3)CC2)n1` [Compound 1114, 4-(3-isopropyl-1,2,4-oxadiazol-5-yl)-1-(3-(4-(methylsulfonyl)phenyl)-1,2,4-thiadiazol-5-yl)piperidine], the activation at 1 µM on hGPR119 stood at 4%.
On the same count and under the same terms, for `CC(C)c1noc(N2CCC(C(C)Oc3nc(-c4ccc(S(C)(=O)=O)cc4)ns3)CC2)n1` (stereo not shown) [Compound 1115, 4-(1-(3-(4-(methylsulfonyl)phenyl)-1,2,4-thiadiazol-5-yloxy)ethyl)-1-(3-isopropyl-1,2,4-oxadiazol-5-yl)piperidine] the value was 14%; for `CC(C)c1noc(N2CCC(Oc3nc(-c4ccc(S(C)(=O)=O)cc4)ns3)CC2)n1` [Compound 1116, 4-(3-(4-(methylsulfonyl)phenyl)-1,2,4-thiadiazol-5-yloxy)-1-(3-isopropyl-1,2,4-oxadiazol-5-yl)piperidine], 36%.
On to `CC(C)c1noc(N2CCC(COc3nc(-c4ccc(S(C)(=O)=O)cc4)ns3)CC2)n1` [Compound 1117, 4-((3-(4-(methylsulfonyl)phenyl)-1,2,4-thiadiazol-5-yloxy)methyl)-1-(3-isopropyl-1,2,4-oxadiazol-5-yl)piperidine], for which the activation at 1 µM on hGPR119 was 2%.
Same read-out and setting: for `CC(C)c1noc(N2CCC(Oc3nsc(-c4ccc(S(C)(=O)=O)nc4)n3)CC2)n1` [Compound 1119, 5-(3-(1-(3-isopropyl-1,2,4-oxadiazol-5-yl)piperidin-4-yloxy)-1,2,4-thiadiazol-5-yl)-2-(methylsulfonyl)pyridine] the value was 7%.
As for `CC(C)c1noc(N2CCC(COc3nsc(-c4ccc(S(C)(=O)=O)nc4)n3)CC2)n1` [Compound 1120, 5-(3-((1-(3-isopropyl-1,2,4-oxadiazol-5-yl)piperidin-4-yl)methoxy)-1,2,4-thiadiazol-5-yl)-2-(methylsulfonyl)pyridine], at hGPR119, the activation at 1 µM was 15%.
As for `CCCc1cnc(N2CCC(Oc3nc(-c4ccc(S(C)(=O)=O)nc4)ns3)CC2)nc1` [Compound 1123, 2-(4-(3-(6-(methylsulfonyl)pyridin-3-yl)-1,2,4-thiadiazol-5-yloxy)piperidin-1-yl)-5-propylpyrimidine], the activation at 1 µM at hGPR119 turned out to be 18%.
As for `CC(C)c1noc(N2CCC(Oc3nc(N(C)c4ccc(S(C)(=O)=O)nc4)ns3)CC2)n1` [Compound 1124, N-(5-(1-(3-isopropyl-1,2,4-oxadiazol-5-yl)piperidin-4-yloxy)-1,2,4-thiadiazol-3-yl)-N-methyl-6-(methylsulfonyl)pyridin-3-amine], at hGPR119, the activation at 1 µM was determined as 6%.
Consider `CC(C)c1noc(N2CCC(Nc3nc(-c4ccc(S(C)(=O)=O)nc4)ns3)CC2)n1` [Compound 1126, 1-(3-isopropyl-1,2,4-oxadiazol-5-yl)-N-(3-(6-(methylsulfonyl)pyridin-3-yl)-1,2,4-thiadiazol-5-yl)piperidin-4-amine], for which the activation at 1 µM on hGPR119 is 7%.
As for `CC(C)c1noc(N2CCC(N(C)c3nc(-c4ccc(S(C)(=O)=O)nc4)ns3)CC2)n1` [Compound 1127, 1-(3-isopropyl-1,2,4-oxadiazol-5-yl)-N-methyl-N-(3-(6-(methylsulfonyl)pyridin-3-yl)-1,2,4-thiadiazol-5-yl)piperidin-4-amine], at hGPR119, the activation at 1 µM is 4%.
